Laboratory results from patent US10131663B2, “Chemical compounds” (AstraZeneca AB, priority 2016, dated 2018).
Converted amounts (≈) assume the structure as drawn. Where two headings read alike, the source gives them in different places.

Experiments:
[1] = target: Estrogen Receptor (ERα) in MCF-7 cells (Homo sapiens (Human), UniProt P03372); test: MCF-7 ER down-regulation assay (immuno-fluorescence); type: cell-based
Procedure: The Echo uses acoustic technology to perform direct microplate-to-microplate transfers of DMSO compound solutions to assay plates. […] Cells were fixed at room temperature for 20 mins before being washed two times with 250 μL PBS/Proclin (PBS with a Biocide preservative) using a BioTek platewasher, 40 μL of PBS/Proclin was then added to all wells and the plates stored at 4° C. The fixing method described above was carried out on the Integrated Echo 2 workcell. Immunostaining was performed using an automated AutoElisa workcell. […] The plates were incubated overnight at 4° C. […] The mean total intensity was normalized for cell number giving the total intensity per cell. The data was exported into a suitable software package (such as Origin) to perform curve fitting analysis.

hERG potassium channel = hERG potassium channel (Homo sapiens (Human), UniProt Q12809); test: hERG binding assay (automated patch clamp, CHO cells); type: cell-based; conditions: CHO cell line, Nanion Syncropatch 384PE
Procedure: Reagent preparations include: • 1.
Cell preparations: • 1. If using cell culture; cells to be incubated at 30° C. for approximately 4-6 days prior to being used. Day of assay lift cells using accutase and re-suspend in 20 ml cell buffer to a density of 0.8 to 1e6 cells/ml. • 2. If using assay ready cryovials; rapidly thaw two cryovials at 37° C. and slowly pipette into 23 ml external solution • 3.
All compounds were acoustically dispensed in quadruplicate using a Labcyte Echo. […] Fill 384 well medium resistance 4 hole chips with 40 μl external buffer and perfuse internal buffer to the underside of plate. • 2. Dispense 20 μl of cells into each well of the chip followed by 20 μl of seal enhancer. • 3. Remove 40 μl of reagent from each well to the wash station, leaving a residual volume of 40 μl • 4. Dispense 40 μl of reference buffer with a removal step of 40 μl after 3 min, repeat this step. • 5.
hERG-mediated currents were elicited using a voltage step protocol consisting of acontinuous holding voltage of −80 mV, with a 500 ms step to 60 mV followed by a 500 ms step to −40 mV every 15 seconds. hERG current magnitude was measured automatically from the leak-subtracted traces by the Nanion software by taking the peak of the hERG “tail” current at −40 mV every 15 seconds and taking the last three of these responses for each concentration to generate the concentration-effect curve.
Calculation of results is performed using APC package within Genedata. For the routine normalization of well data with Neutral and Inhibitor control well groups as reference, GeneData Assay Analyzer uses the following equation to normalize the signal values to the desired signal range:
[formula] • x is the measured raw signal value of a well • is the median of the measured signal values for the Central Reference (Neutral) wells on a plate • is the median of the measured signal values for the Scale Reference (Inhibitor) wells on a plate • CR is the desired median normalized value for the Central Reference (Neutral) • SR is the desired median normalized value for the Scale Reference (Inhibitor)

[2] = Thermodynamic solubility (shake-flask); type: physicochemical; conditions: aqueous phosphate buffer, 25 °C, pH 7.4, aqueous buffer, thermodynamic from solid, aqueous phosphate buffer pH 7.4, 24 hours
Procedure: The thermodynamic solubility of a research compound is measured under standard conditions. It is a shake-flask approach that uses 10 mM DMSO solutions which are supplied from the Compound Managements liquid store and is a high throughput method. The dried compounds are equilibrated in an aqueous phosphate buffer (pH 7.4) for 24 hours at 25° C., the portion with the dissolved compound is then separated from the remains. The solutions are analyzed and quantified using UPLC/MS/MS, QC-samples are incorporated in each assay-run to ensure the quality of the assay.

[3] = Human plasma protein binding (equilibrium dialysis); type: in vitro ADME; conditions: dialysis 18 hours
Procedure: The automated equilibrium dialysis assay in human plasma uses the RED (Rapid Equilibrium Dialysis) Device and sample handling. The assay generally runs over two to three days including delivery of results. After dialysis for 18 hours, plasma and buffer samples are prepared for analysis by liquid chromatography and mass spectrometry. Samples are generally tested in singlicates and quantified by LC/MSMS by using a 7-point calibration curve in plasma. The compounds are pooled together in plasma pools up to 10 compounds. Three reference compounds are used in each run, Propranolol, Metoprolol and Warfarin. Warfarin is used as a control in each pool and Propranolol and Metoprolol are placed randomly in each run. An in-house Excel macro is used for preparation of files for the robot and the mass spectrometer and is also used for the calculations of fraction unbound (fu %) in plasma.

[4] = Human Caco-2 bidirectional permeability A to B and B to A; type: in vitro ADME; conditions: for Papp at 2 h: Caco-2, 2 hours, pH 7.4; for efflux ratio at 2 h: Caco-2, pH 7.4
Procedure: An automated assay was used to determine the bidirectional permeability (efflux and uptake) of compounds in Caco-2 cells carried out over 2 hours at pH 7.4.
The efflux ratio (ER) can be determined using the following equation: ER=Papp(B-A)/Papp(A-B) Where Papp (B-A) indicates the apparent permeability coefficient in basolateral to apical direction, and Papp (A-B) indicates the apparent permeability coefficient in apical to basolateral direction. Human Caco-2 Passive Permeability A to B Papp

[5] = target: recombinant human Estrogen Receptor alpha ligand binding domain (ER alpha-LBD (GST)) (Homo sapiens (Human), UniProt P03372); test: ERα binding assay (LanthaScreen TR-FRET competition)
Procedure: The ability of compounds to bind to isolated Estrogen Receptor Alpha Ligand binding domain (ER alpha-LBD (GST)) was assessed in competition assays using a LanthaScreen™ Time-Resolved Fluorescence Resonance Energy Transfer (TR-FRET) detection end-point. […] The assay principle is that ER alpha-LBD (GST) is added to a fluorescent ligand to form a receptor/fluorophore complex. A terbium-labelled anti-GST antibody (Product code PV3551) is used to indirectly label the receptor by binding to its GST tag, and competitive binding is detected by a test compound's ability to displace the fluorescent ligand, resulting in a loss of TR-FRET signal between the Tb-anti-GST antibody and the tracer. The assay was performed as follows with all reagent additions carried out using the Beckman Coulter BioRAPTR FRD microfluidic workstation: • 1. Acoustic dispense 120 nL of the test compound into a black low volume 384 well assay plates. • 2. Prepare 1×ER alpha-LBD/Tb-antiGST Ab in ES2 screening buffer and incubate for 15 minutes. • 3. Dispense 6 μL of the 1×[…]/Tb-anti-GST Ab reagent into each well of the assay plate followed by 6 μL of Fluorophore reagent into each well of the assay plate • 4. Cover the assay plate to protect the reagents from light and evaporation, and incubate at room temperature for 4 hours. • 5.
TR-FRET dose response data obtained with each compound was exported into a suitable software package (such as Origin or Genedata) to perform curve fitting analysis. Competitive ER alpha binding was expressed as an IC50 value.

[6] = log D (shake flask, 1-octanol/aqueous buffer); type: physicochemical
Excerpt: The lipophilicity of a drug is an important physical property which may influence many biological and metabolic properties of a compound, for example the absorption, distribution, metabolism, excretion and toxicity profiles of a compound. The distribution coefficient between 1-octanol and aqueous buffer, Log DO/W, at pH 7.4, is the most commonly used measurement of the lipophilicity of a compound. The current method for measurement of Log DO/W is based on the traditional shake flask technique, but with the modification of measuring compounds in mixtures of ten at a time using UPLC with quantitative mass spectrometry (MS) as a method to measure the relative octanol and aqueous concentrations. […] An additional QC sample Caffeine, with low Log D, are used and randomly placed in all runs. The method has been thoroughly validated against the previous shake flask methodologies.

[7] = pH 7.4, 1-octanol/aqueous buffer
[8] = TR-FRET, displacement of Fluormone ES2
[9] = 1-octanol/aqueous buffer, pH 7.4, pH 7.4, 1-octanol/aqueous buffer

recombinant human Estrogen Receptor alpha ligand binding domain (ER alpha-LBD (GST)), sequence (P03372 307-554): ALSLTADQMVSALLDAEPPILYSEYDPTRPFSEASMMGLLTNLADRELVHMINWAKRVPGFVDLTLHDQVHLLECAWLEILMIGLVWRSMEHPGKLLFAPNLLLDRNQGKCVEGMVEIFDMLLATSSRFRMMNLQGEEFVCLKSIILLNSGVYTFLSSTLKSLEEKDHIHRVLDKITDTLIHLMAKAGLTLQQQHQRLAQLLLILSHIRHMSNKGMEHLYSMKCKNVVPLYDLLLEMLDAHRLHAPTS
Estrogen Receptor (ERα) in MCF-7 cells, sequence (P03372 whole entry): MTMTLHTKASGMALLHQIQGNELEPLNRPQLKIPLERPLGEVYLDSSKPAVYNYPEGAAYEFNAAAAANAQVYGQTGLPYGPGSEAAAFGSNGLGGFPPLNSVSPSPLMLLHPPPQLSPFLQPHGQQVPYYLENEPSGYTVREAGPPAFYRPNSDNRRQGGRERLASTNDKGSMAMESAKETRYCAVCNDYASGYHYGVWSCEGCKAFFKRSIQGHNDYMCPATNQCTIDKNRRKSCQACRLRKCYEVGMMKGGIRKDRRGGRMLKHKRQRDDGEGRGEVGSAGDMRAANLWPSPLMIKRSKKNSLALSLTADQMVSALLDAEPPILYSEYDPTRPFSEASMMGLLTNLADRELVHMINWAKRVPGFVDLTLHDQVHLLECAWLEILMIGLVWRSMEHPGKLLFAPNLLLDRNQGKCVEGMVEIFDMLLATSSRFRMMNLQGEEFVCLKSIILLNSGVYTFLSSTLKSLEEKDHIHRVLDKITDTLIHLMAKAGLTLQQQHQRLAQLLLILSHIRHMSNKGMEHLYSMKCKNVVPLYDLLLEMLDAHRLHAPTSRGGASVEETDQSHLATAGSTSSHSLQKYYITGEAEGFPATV
hERG potassium channel, sequence (Q12809 whole entry): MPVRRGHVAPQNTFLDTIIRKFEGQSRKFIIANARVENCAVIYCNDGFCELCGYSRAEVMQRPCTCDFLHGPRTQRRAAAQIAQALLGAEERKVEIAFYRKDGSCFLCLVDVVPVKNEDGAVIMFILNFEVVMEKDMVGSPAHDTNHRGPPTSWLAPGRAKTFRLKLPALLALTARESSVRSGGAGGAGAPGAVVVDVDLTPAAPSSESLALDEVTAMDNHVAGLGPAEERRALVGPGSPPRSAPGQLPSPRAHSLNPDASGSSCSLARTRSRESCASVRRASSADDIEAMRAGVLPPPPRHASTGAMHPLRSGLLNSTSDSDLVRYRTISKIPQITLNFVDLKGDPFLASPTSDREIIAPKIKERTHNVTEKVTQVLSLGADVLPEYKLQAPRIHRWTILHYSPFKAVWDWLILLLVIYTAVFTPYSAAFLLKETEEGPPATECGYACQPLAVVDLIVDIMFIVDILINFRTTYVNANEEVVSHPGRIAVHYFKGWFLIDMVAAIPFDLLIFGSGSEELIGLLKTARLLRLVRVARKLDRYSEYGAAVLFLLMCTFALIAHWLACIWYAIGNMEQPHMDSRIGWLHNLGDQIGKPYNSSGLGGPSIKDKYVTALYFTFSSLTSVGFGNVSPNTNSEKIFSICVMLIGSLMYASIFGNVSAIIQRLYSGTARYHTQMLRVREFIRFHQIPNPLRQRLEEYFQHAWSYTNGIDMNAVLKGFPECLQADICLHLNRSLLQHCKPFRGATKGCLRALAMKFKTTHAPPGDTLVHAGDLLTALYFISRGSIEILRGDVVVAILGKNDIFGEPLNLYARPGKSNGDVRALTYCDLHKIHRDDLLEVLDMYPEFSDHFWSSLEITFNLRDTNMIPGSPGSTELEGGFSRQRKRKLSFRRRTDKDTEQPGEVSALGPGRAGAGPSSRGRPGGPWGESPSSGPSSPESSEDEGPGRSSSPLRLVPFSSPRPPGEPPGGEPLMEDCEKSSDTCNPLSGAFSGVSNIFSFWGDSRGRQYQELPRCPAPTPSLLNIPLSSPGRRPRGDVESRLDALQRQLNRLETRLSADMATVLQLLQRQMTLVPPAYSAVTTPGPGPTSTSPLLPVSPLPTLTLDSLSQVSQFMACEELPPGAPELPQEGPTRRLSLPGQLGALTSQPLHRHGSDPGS

COc1cc(NC2CN(CCCF)C2)ccc1[C@@H]1c2ccc3[nH]ncc3c2C[C@@H](C)N1CC(F)(F)CO [Example 60, 2,2-difluoro-3-((6S,8R)-6-(4-((1-(3-fluoropropyl)azetidin-3-yl)amino)-2-methoxyphenyl)-8-methyl-3,6,8,9-tetrahydro-7H-pyrazolo[4,3-f]isoquinolin-7-yl)propan-1-ol]
IC50 [1]: 0.19 nM | IC50 (hERG potassium channel): 11000 nM | solubility at 24 h [2]: 593 µM (≈ 307 µg/mL) | Human plasma protein binding (% free) [3]: 23 % free | Papp at 2 h [4]: 0.7 ×10⁻⁶ cm/s | efflux ratio at 2 h [4]: 34 | IC50 [5]: 4.7 nM | logD [6, 7]: 2.5

C[C@@H]1Cc2c(ccc3[nH]ncc23)[C@@H](c2ccc(NC3CN(CCCF)C3)c(F)n2)N1CC(F)F [Example 47, 6-((6S,8R)-7-(2,2-difluoroethyl)-8-methyl-6,7,8,9-tetrahydro-3H-pyrazolo[4,3-f]isoquinolin-6-yl)-2-fluoro-N-(1-(3-fluoropropyl)azetidin-3-yl)pyridin-3-amine]
IC50 [1]: 0.41 nM | solubility at 24 h [2]: > 1000 µM | Papp at 2 h [4]: 18 ×10⁻⁶ cm/s | efflux ratio at 2 h [4]: 1.1 | IC50 [5, 8]: 1.2 nM | logD [6, 9]: 2.6

C[C@@H]1Cc2c(ccc3[nH]ncc23)[C@@H](c2ncc(NC3CN(CCCF)C3)cc2F)N1CC(F)(F)CO [Example 31, 2,2-Difluoro-3-((6S,8R)-6-(3-fluoro-5-((1-(3-fluoropropyl)azetidin-3-yl)amino)pyridin-2-yl)-8-methyl-3,6,8,9-tetrahydro-7H-pyrazolo[4,3-f]isoquinolin-7-yl)propan-1-ol]
solubility at 24 h [2]: > 942 µM | Human plasma protein binding (% free) [3]: 44 % free | Papp at 2 h [4]: 0.9 ×10⁻⁶ cm/s | logD [6, 9]: 2

COc1cc(N(C)C2CN(CCCF)C2)ccc1[C@@H]1c2ccc3[nH]ncc3c2C[C@@H](C)N1CC1(F)CC1 [Example 52, N-(4-((6S,8R)-7-((1-fluorocyclopropyl)methyl)-8-methyl-6,7,8,9-tetrahydro-3H-pyrazolo[4,3-f]isoquinolin-6-yl)-3-methoxyphenyl)-1-(3-fluoropropyl)-N-methylazetidin-3-amine]
IC50 [1]: 0.21 nM | IC50 (hERG potassium channel): 2000 nM | solubility at 24 h [2]: 864 µM (≈ 440 µg/mL) | Human plasma protein binding (% free) [3]: 19 % free | IC50 [5, 8]: 11 nM | logD [6, 9]: 3

C[C@@H]1Cc2c(ccc3[nH]nc(F)c23)[C@@H](c2cnc(NC3CN(CCCF)C3)cn2)N1CC(F)(F)F [Example 38, 5-((6S,8R)-1-fluoro-8-methyl-7-(2,2,2-trifluoroethyl)-6,7,8,9-tetrahydro-3H-pyrazolo[4,3-f]isoquinolin-6-yl)-N-(1-(3-fluoropropyl)azetidin-3-yl)pyrazin-2-amine]
IC50 [1]: 0.19 nM | IC50 (hERG potassium channel): 18000 nM | solubility at 24 h [2]: 794 µM (≈ 393 µg/mL) | Human plasma protein binding (% free) [3]: 13 % free | IC50 [5, 8]: 0.69 nM | logD [6, 9]: 3.1

CC1(C)Cc2c(ccc3[nH]ncc23)[C@@H](c2ccc(NC3CN(CCCF)C3)cn2)N1CC(F)F [Example 73, (S)-6-(7-(2,2-difluoroethyl)-8,8-dimethyl-6,7,8,9-tetrahydro-3H-pyrazolo[4,3-f]isoquinolin-6-yl)-N-(1-(3-fluoropropyl)azetidin-3-yl)pyridin-3-amine]
IC50 [1]: 0.77 nM | IC50 (hERG potassium channel): 12000 nM | solubility at 24 h [2]: 925 µM (≈ 437 µg/mL) | Human plasma protein binding (% free) [3]: 22 % free | IC50 [5, 8]: 3.4 nM | logD [6, 7]: 3

C[C@@H]1Cc2c(ccc3[nH]nc(F)c23)[C@@H](c2ccc(NC3CN(CCCF)C3)cn2)N1CC(F)(F)CO [Example 61, 2,2-difluoro-3-((6S,8R)-1-fluoro-6-(5-((1-(3-fluoropropyl)azetidin-3-yl)amino)pyridin-2-yl)-8-methyl-3,6,8,9-tetrahydro-7H-pyrazolo[4,3-f]isoquinolin-7-yl)propan-1-ol]
IC50 [1]: 0.13 nM | IC50 (hERG potassium channel): > 40000 nM | solubility at 24 h [2]: 848 µM (≈ 430 µg/mL) | Human plasma protein binding (% free) [3]: 29 % free | IC50 [5, 8]: 0.88 nM | logD [6, 9]: 2.7

C[C@@H]1Cc2c(ccc3[nH]ncc23)[C@@H](c2ccc(NC3CN(CCCF)C3)c(F)c2)N1CC(F)(F)F [Example 41, N-(2-fluoro-4-((6R,8R)-8-methyl-7-(2,2,2-trifluoroethyl)-6,7,8,9-tetrahydro-3H-pyrazolo[4,3-f]isoquinolin-6-yl)phenyl)-1-(3-fluoropropyl)azetidin-3-amine]
IC50 [1]: 0.17 nM | IC50 (hERG potassium channel): 6500 nM | solubility at 24 h [2]: 120 µM (≈ 59.2 µg/mL) | Human plasma protein binding (% free) [3]: 2.2 % free | IC50 [5, 8]: 2.4 nM | logD [6, 9]: 4.1
